Measured values from the NIST ThermoML archive (doi:10.1021/acs.jced.8b01237).
Numbers after ± are expanded uncertainties.

Conditions: 100 kPa, Liquid, Concentric cylinders viscometry

Compound	viscosity (298.15 K)	viscosity (318.15 K)	viscosity (338.15 K)
CCCC[N+]1(C)CCCC1.O=S(=O)([N-]S(=O)(=O)C(F)(F)F)C(F)(F)F	75.6 ± 12 mPa·s	34.3 ± 5.5 mPa·s	18.62 ± 3 mPa·s
CCC[N+]1(C)CCCC1.O=S(=O)([N-]S(=O)(=O)C(F)(F)F)C(F)(F)F	56.6 ± 9.1 mPa·s	26.48 ± 4.2 mPa·s	15.55 ± 2.5 mPa·s
CCCCCC[N+]1(C)CCCC1.O=S(=O)([N-]S(=O)(=O)C(F)(F)F)C(F)(F)F	98.3 ± 16 mPa·s	41.38 ± 6.6 mPa·s	21.88 ± 3.5 mPa·s
